Measured values as given in patent US20220160651A1, “RAPIDLY IMPROVING ENDOTHELIAL FUNCTION, REDUCING ARTERIAL STIFFNESS AND REVERSING CALCIFICATION OF BLOOD VESSELS BY ADMINISTERING VITAMIN K” (KAYDENCE PHARMA AS, priority 2019, published 2022).
Where “and” joins values, the source holds several entries; their conditions need not be identical. Identical values can stand only once.

Assays:
ApoE/LDLR−/− mice = assay: MRI-based assessment of NO-dependent vasodilatation in BCA and LCA after acetylcholine (Example 2); type: in vivo; settings: two months, 25 min after Ach
Experimental: The effects of low-doses (0.03 mg/kg b.w./day) as well as high-doses (10 mg/kg b.w./day) of vitamin K2 (MK-7), on endothelial function in mice with pre-established atherosclerosis was assessed. The mice were treated with K2 (MK-7) for two months and endothelial function was analyzed in vivo based on functional study (MRI based assessment of NO-dependent vasodilation) as well as by biochemical analysis (plasma nitrate and nitrite concentration). In addition, a comprehensive qualitative and quantitative histological analysis of the effects of K2 (MK-7) on vascular wall structure and atherosclerosis plaque composition was performed.
Endpoint assays: Magnetic resonance imaging (MRI)-based assessment of nitric oxide (NO)-dependent vasodilatation in brachiocephalic (BCA) and left common carotid artery (LCA) after acetylcholine (Ach) administration—by MRI 9.4T scanner, total time of measurements: 114 h (1.5 h per animal), acetylcholine (Ach, 16.6 mg/kg b.w.)
Studies were performed on 4-month old female ApoE/LDLR−/− mice, the model initially described by Ishibashi S, Herz J, Maeda N, Goldstein J, Brown M. The two-receptor model of lipoprotein clearance: tests of the hypothesis in “knockout” mice lacking the low density lipoprotein receptor, apolipoprotein E, or both proteins. Proc Natl Acad Sci USA 1994; 10:4431-5., and extensively characterized in previous studies, [see Kostogrys RB, Franczyk-Zarow M, Gasior-Glogowska M, Kus E, Jasztal A, Wrobel T P, et al. Anti-atherosclerotic effects of pravastatin in brachiocephalic artery in comparison with en face aorta and aortic roots in ApoE/LDLR−/− mice. Pharmacol Reports 2017; 69:112-8. doi:10.1016/j.pharep.2016.09.014; Tyrankiewicz U, Skorka T, Orzylowska A, Jablonska M, Jasinski K, Jasztal A, et al. Comprehensive MRI for the detection of subtle alterations in diastolic cardiac function in apoE/LDLR −/− mice with advanced atherosclerosis. […] End-diastolic volumes of BCA and LCA were analyzed using ImageJ software (1.46r NIH Bethesda, Md., USA) and scripts written in Matlab (MathWorks, Natick, Mass., USA) (FIG. 1A).

[1] = tested on: endothelial nitric oxide synthase (eNOS)-dependent nitric oxide (NO) production; assay: Endothelial NO production in ex vivo aorta by EPR spin-trapping; settings: 0.05 mg/kg b.w./day, vs untreated age-matched mice
Source text: For measurements of endothelial nitric oxide synthase (eNOS)-dependent nitric oxide (NO) production, EPR spin-trapping with diethyldithiocarbamic acid sodium salt (DETC) was used ex vivo, as described in Przyborowski K, Proniewski B, Czarny J, Smeda M, Sitek B, Zakrzewska A, et al. Vascular Nitric Oxide-Superoxide Balance and Thrombus Formation after Acute Exercise. Med Sci Sport Exerc 2018:1. doi:10.1249/MSS.0000000000001589, with minor modifications. Isolated aorta cleared from surrounding tissue was opened longitudinally and preincubated with 10 μM L-NIL (N6-(1-Iminoethyl)-lysine, hydrochloride) in Krebs-HEPES buffer for 30 minutes at 37° C. in a well of a 48-well plate. Next, 250 μL of Fe(DETC)2 colloid was added and aorta was stimulated with calcium ionophore A23187 (the final concentration was 1 μM) and subsequently, incubated for 90 minutes at 37° C. Finally, aorta was weighed and frozen in liquid nitrogen (suspended in fresh buffer) into the middle of a 400 μL column of Krebs-Hepes buffer and stored at −80° C. until measured. EPR spectra were obtained using an X-band EPR spectrometer (EMX Plus, Bruker, Germany), equipped with a rectangular resonator cavity H102. Signals were quantified by measuring the total amplitude of the NO-Fe(DETC)2 after correction of baseline. The quantitative results of NO production assessed by EPR were expressed in AU/mg of tissue.

[2] = mouse, in vivo, 5 mg/kg/day

CC(C)=CCC/C(C)=C/CC/C(C)=C/CC/C(C)=C/CC/C(C)=C/CC/C(C)=C/CC/C(C)=C/CC1=C(C)C(=O)c2ccccc2C1=O [MK-7, menaquinone-7]
vessel volume change of BCA after Ach injection (ApoE/LDLR−/− mice; high dose 10 mg/kg b.w./day): 3.12%
vessel volume change of LCA after Ach injection (ApoE/LDLR−/− mice; high dose 10 mg/kg b.w./day): 4.45%
vessel volume change of LCA after Ach injection (ApoE/LDLR−/− mice; low dose 0.03 mg/kg b.w./day, listed as vitamin MK-7, 0.03 mg/kg/day): ~−3% and −3.92%
nitric oxide production in ex vivo aorta by EPR [1]: increased nitric oxide production
concentration of MK4 2,3-epoxide in plasma [2]: maintained at similar level in all groups
plasma concentration of MK-4 [2]: dose-dependent increase
vitamin K1 and K1 2,3-epoxide plasma concentration [2]: tent to decrease with increasing dose
